In patent US9284283B2, “Macrocyclic compounds for modulating IL-17” (ENSEMBLE THERAPEUTICS CORPORATION, priority 2012, dated 2016):
pIC50, pKd: −log10 of the molar value.

How the values were obtained:
[1] = molecular target: T1, recombinant human IL17a (binding to its receptor IL17R) (Homo sapiens, UniProt Q16552); experiment: IL-17 competition ELISA I (IL17a coated, IL17R/Fc binding)
T1 construct: purchased R&D Systems 317-ILB (IL17a); 177-IR (IL17R/Fc)
T1 sequence (Q16552 20-155 limits assumed): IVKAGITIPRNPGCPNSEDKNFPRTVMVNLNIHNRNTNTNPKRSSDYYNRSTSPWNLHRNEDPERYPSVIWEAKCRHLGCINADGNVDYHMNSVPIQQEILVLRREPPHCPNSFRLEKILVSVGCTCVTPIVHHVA
Outline: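 Plates coated with 20 nM recombinant human IL17a received compound dilutions and 12 nM IL17R/Fc (final) for 30 min at room temperature. Bound receptor was detected with HRP anti-human Fc and TMB, read at 450 nm. IC50 came from a 4-parameter logistic fit between no-competitor and blank controls.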

IL17A = molecular target: T2, IL17A (Homo sapiens, UniProt Q16552); experiment: Surface Plasmon Resonance (SPR) analysis of compound interactions with IL17A; settings: SPR binding to IL17A
T2 sequence (Q16552 24-155): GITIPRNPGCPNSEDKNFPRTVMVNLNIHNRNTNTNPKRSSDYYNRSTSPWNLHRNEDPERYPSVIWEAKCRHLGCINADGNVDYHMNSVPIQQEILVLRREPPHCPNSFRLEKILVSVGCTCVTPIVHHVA
Experimental: SPR analysis was carried out with a GE Healthcare (Piscataway, N.J.) Biacore X100 system. Typically, the chip (NTA Biacore Biosensor chip; GE Healthcare BR-1000-34) was first conditioned by injection of 0.35 M EDTA, which also served to remove any immobilized proteins from previous runs. Before immobilization of the recombinant 6-His-tagged IL17, the chip was washed with 0.5 mM nickel chloride in NTA buffer (10 mM HEPES buffer, 0.15 M sodium chloride, 10 μM ethylene diamine tetraacetic acid, 0.005% v/v surfactant P20 (GE Healthcare BR-1000-54)) to form a nickel chelate on the chip. IL17 protein was immobilized onto a NTA chip through its 6-His tag. IL17A was typically injected at 0.25 μM for 60-120 seconds, followed by a stabilization step washing with NTA+0.5% DMSO for 120 seconds or longer.
Five 2-fold or 3-fold serial dilutions of test compound were injected serially onto the chip. All steps were conducted using NTA buffer containing 0.5% v/v dimethylsulfoxide (DMSO). Compounds were diluted from stock solutions of 10 mM concentration in 100% DMSO with NTA buffer to obtain 50 μM solutions in NTA+0.5% DMSO. Subsequent 2× or 3× dilutions were made in NTA+0.5% DMSO. Compound was generally injected for 180 seconds followed by washing the chip in buffer alone for 120 seconds. The rate of refractive index change (RU units/time) and the maximum extend of RU change was measured during the “on” phase of analyte injection, followed by measuring the rate during the “off” phase.
Kinetic parameter fits were conducted using the Biacore SPR Evaluation Program (GE Healthcare) for 1:1 molecular binding fits, after subtracting the baseline average of 2 or more runs in which no analyte was injected. This program then reports the best fit average for the “on” rate (Ka), the “off” rate (Kd) and the dissociation constant (KD) (Chaiken, I et al., Anal Biochem 201, 197-210 (1992)). A separate program in the Biacore SPR Evaluation Program then calculates the best fit for Kd based upon the extent of binding alone (RU units bound) at each concentration of analyte and reports the best fit Kd by best fit to a Lineweaver-Burke plot. Typically, the Kd value calculated through both means agreed within a factor of three.
The presence and activity of IL17 on the NTA chip was routinely confirmed three ways: • 1) An increase in response units (RU) upon immobilization confirms that the IL17 was immobilized on the chip; • 2) Anti-IL17 was also injected on the chip to confirm the presence of IL17; and • 3) IL17R was injected onto the chip to confirm that the immobilized IL17 retained its binding activity for its receptor. Negative controls to access specificity for compound binding were conducted by immobilizing unrelated, but his-tagged, proteins (such as cyclophilin D) and conducting the same analysis as done with IL17A.

[2] = molecular target: T3, biotinylated human IL-17 (binding to IL17R/Fc) (Homo sapiens, UniProt Q16552); experiment: IL-17 competition ELISA II (captured IL17R/Fc, biotinylated IL-17)
T3 construct: purchased R&D Systems 317-ILB (IL-17, biotinylated); 177-IR (IL17R/Fc)
T3 sequence (Q16552 20-155 limits assumed): T1 sequence (Q16552 20-155 limits assumed)
Outline: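 Competition read-out: absorbance at 450 nm after streptavidin-HRP/TMB detection, fitted to a 4-parameter logistic model bounded by no-competitor and blank wells to give IC50. Compound was serially diluted 5-fold from 1 μM alongside 20 nM (stock) biotinylated IL-17 on IL17R/Fc (10 nM) captured via goat anti-human IgG, 30 min at room temperature.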

Compound | pIC50 [1] | pKd (IL17A) | pIC50 [2]
O=C1CCCNC(=O)[C@@H](Cc2ccc(NC(=O)[C@H](Cc3ccccc3Cl)NC(=O)Cc3ccccc3)cc2)NC(=O)CC2(CCCC2)CC(=O)NCCCN1 [Compound 158] | > 7.00 | > 7.00 | –
O=C1CCNC(=O)[C@@H](Cc2ccc(NC(=O)[C@H](Cc3ccccc3Cl)NC(=O)Cc3ccccc3)cc2)NC(=O)CC2(CCCC2)CC(=O)NCCCCN1 [Compound 164] | > 7.00 | > 7.00 | –
O=C1CCCNC(=O)[C@H](Cc2ccc(NC(=O)[C@H](Cc3ccccc3F)NC(=O)Cc3ccccc3)cc2)NC(=O)CC2(CCCC2)CC(=O)N[C@H](C(=O)O)CCCCN1 [Compound 174] | – | 6.00 to 7.00 | –
O=C1CCCNC(=O)[C@@H](Cc2ccc(NC(=O)[C@H](Cc3ccccc3F)NC(=O)Cc3ccccc3)cc2)NC(=O)CC2(CCCC2)CC(=O)N[C@H](C(=O)O)CCCCN1 [Compound 175] | – | 6.00 to 7.00 | –
O=C1CCCNC(=O)[C@@H](Cc2ccc(NC(=O)[C@H](Cc3ccccc3F)NC(=O)Cc3ccccc3)cc2)NC(=O)CC2(CCCC2)CC(=O)N[C@@H](C(=O)O)CCCCN1 [Compound 176] | – | 6.00 to 7.00 | –
O=C1CCCNC(=O)[C@@H](Cc2ccc(NC(=O)[C@H](Cc3ccc(-c4ccccc4)cc3)NC(=O)c3ccccc3)cc2)NC(=O)CC2(CCCC2)CC(=O)N[C@H](C(=O)O)CCCCN1 [Compound 178] | – | 6.00 to 7.00 | –
O=C1CC2(CCCC2)CC(=O)N[C@H](Cc2ccc(NC(=O)[C@H](Cc3ccccc3F)NC(=O)Cc3ccccc3)cc2)C(=O)NCCCC[C@@H](C(=O)O)N1 [Compound 179] | – | 6.00 to 7.00 | > 7.00
CC1(C)NC(=O)[C@@H](Cc2ccc(NC(=O)[C@H](Cc3ccccc3Cl)NC(=O)Cc3ccccc3)cc2)NC(=O)CC2(CCCC2)CC(=O)N[C@@H](C(=O)O)CCCCNC1=O [Compound 182] | – | 6.00 to 7.00 | –
O=C1CNC(=O)[C@@H](Cc2ccc(NC(=O)[C@H](Cc3ccc(O)cc3)NC(=O)Cc3ccccc3)cc2)NC(=O)CC2(CCCC2)CC(=O)NCCCCCN1 [Compound 183] | 5.00 to 6.00 | 6.00 to 7.00 | –
CN1CC(=O)NCCCCCNC(=O)CC2(CCCC2)CC(=O)N[C@H](Cc2ccc(NC(=O)[C@H](Cc3ccccc3Cl)NC(=O)Cc3ccccc3)cc2)C1=O [Compound 188] | 5.00 to 6.00 | 6.00 to 7.00 | –
O=C1CNC(=O)[C@@H](Cc2ccc(NC(=O)[C@H](Cc3ccc(O)cc3)NC(=O)Cc3ccc(O)cc3)cc2)NC(=O)CC2(CCCC2)CC(=O)NCCCCCN1 [Compound 189] | – | > 7.00 | –
O=C1CNC(=O)[C@@H](Cc2ccc(NC(=O)[C@H](Cc3c(F)cccc3F)NC(=O)Cc3ccc(O)cc3)cc2)NC(=O)CC2(CCCC2)CC(=O)NCCCCCN1 [Compound 190] | – | 6.00 to 7.00 | –
CN1CC(=O)NCCCCCNC(=O)CC2(CCCC2)CC(=O)N[C@H](Cc2ccc(NC(=O)[C@H](Cc3ccccc3Cl)NC(=O)Cc3ccc(O)cc3)cc2)C1=O [Compound 193] | 6.00 to 7.00 | > 7.00 | –
O=C1CNC(=O)[C@@H](Cc2ccc(NC(=O)[C@H](Cc3ccccc3Cl)NC(=O)c3cnccn3)cc2)NC(=O)CC2(CCCC2)CC(=O)NCCCCCN1 [Compound 200] | 6.00 to 7.00 | 6.00 to 7.00 | –
O=C1CNC(=O)[C@@H](Cc2ccc(NC(=O)[C@H](Cc3ccccc3Cl)NC(=O)Cc3ccncc3)cc2)NC(=O)CC2(CCCC2)CC(=O)NCCCCCN1 [Compound 202] | > 7.00 | > 7.00 | –
O=C1CNC(=O)[C@@H](Cc2ccc(NC(=O)[C@H](Cc3ccccc3Cl)NC(=O)c3ccccc3F)cc2)NC(=O)CC2(CCCC2)CC(=O)NCCCCCN1 [Compound 203] | > 7.00 | > 7.00 | –
O=C1CNC(=O)[C@@H](Cc2ccc(NC(=O)[C@H](Cc3ccccc3Cl)NC(=O)c3ccccc3Cl)cc2)NC(=O)CC2(CCCC2)CC(=O)NCCCCCN1 [Compound 204] | 6.00 to 7.00 | > 7.00 | –

Compound | pIC50 [1] | pKd (IL17A) | pIC50 [2]
O=C1CNC(=O)[C@@H](Cc2ccc(NC(=O)[C@H](Cc3ccccc3Cl)NC(=O)c3ccc(Cl)cc3)cc2)NC(=O)CC2(CCCC2)CC(=O)NCCCCCN1 [Compound 205] | > 7.00 | > 7.00 | –
O=C1CNC(=O)[C@@H](Cc2ccc(NC(=O)[C@H](Cc3ccccc3Cl)NC(=O)C3CCCCC3)cc2)NC(=O)CC2(CCCC2)CC(=O)NCCCCCN1 [Compound 207] | 6.00 to 7.00 | > 7.00 | –
O=C1CNC(=O)[C@@H](Cc2ccc(NC(=O)[C@H](Cc3ccccc3Cl)NC(=O)c3ccncc3)cc2)NC(=O)CC2(CCCC2)CC(=O)NCCCCCN1 [Compound 208] | – | > 7.00 | –
O=C1CNC(=O)[C@@H](Cc2ccc(NC(=O)[C@H](Cc3ccc(Cl)cc3Cl)NC(=O)Cc3ccccc3)cc2)NC(=O)CC2(CCCC2)CC(=O)NCCOCCN1 [Compound 210] | – | > 7.00 | –
O=C1CNC(=O)[C@@H](Cc2ccc(NC(=O)[C@H](Cc3cccc(Cl)c3)NC(=O)Cc3ccccc3)cc2)NC(=O)CC2(CCCC2)CC(=O)OCCCCCN1 [Compound 212] | 6.00 to 7.00 | 6.00 to 7.00 | –
O=C1CNC(=O)[C@@H](Cc2ccc(NC(=O)[C@H](Cc3ccc(Cl)cc3)NC(=O)Cc3ccccc3)cc2)NC(=O)CC2(CCCC2)CC(=O)OCCCCCN1 [Compound 213] | < 5.00 | 6.00 to 7.00 | –
O=C1CNC(=O)[C@@H](Cc2ccc(NC(=O)[C@H](Cc3ccccc3Cl)NC(=O)c3cccc(O)c3)cc2)NC(=O)CC2(CCCC2)CC(=O)NCCCCCN1 [Compound 214] | > 7.00 | > 7.00 | –
O=C1CNC(=O)[C@@H](Cc2ccc(NC(=O)[C@H](Cc3ccccc3Cl)NC(=O)c3ccc(O)cc3)cc2)NC(=O)CC2(CCCC2)CC(=O)NCCCCCN1 [Compound 215] | – | > 7.00 | –
O=C1CCCC(=O)N[C@H](Cc2ccc(NC(=O)[C@H](Cc3ccccc3Cl)NC(=O)Cc3ccccc3)cc2)C(=O)NCC(=O)NCCCCCN1 [Compound 221] | 5.00 to 6.00 | 6.00 to 7.00 | –
CC1(C)CC(=O)NCCCCCNC(=O)CNC(=O)[C@@H](Cc2ccc(NC(=O)[C@H](Cc3ccccc3Cl)NC(=O)Cc3ccccc3)cc2)NC(=O)C1 [Compound 222] | > 7.00 | > 7.00 | –
O=C1CNC(=O)[C@@H](Cc2ccc(NC(=O)[C@H](Cc3ccccc3Cl)NC(=O)Cc3ccccc3)cc2)NC(=O)CC2(CCCCC2)CC(=O)NCCCCCN1 [Compound 223] | > 7.00 | > 7.00 | –
O=C1CNC(=O)[C@@H](Cc2ccc(NC(=O)[C@H](Cc3ccc(Cl)c(Cl)c3)NC(=O)Cc3ccccc3)cc2)NC(=O)CC2(CCCC2)CC(=O)OCCCCCN1 [Compound 224] | 5.00 to 6.00 | 6.00 to 7.00 | –
O=C1CNC(=O)[C@@H](Cc2ccc(NC(=O)[C@H](Cc3ccc(Br)s3)NC(=O)Cc3ccccc3)cc2)NC(=O)CC2(CCCC2)CC(=O)OCCCCCN1 [Compound 225] | 5.00 to 6.00 | 6.00 to 7.00 | –
O=C1CNC(=O)[C@@H](Cc2ccc(NC(=O)[C@H](Cc3cccs3)NC(=O)Cc3ccccc3)cc2)NC(=O)CC2(CCCC2)CC(=O)NCCCCCN1 [Compound 228] | > 7.00 | > 7.00 | –
O=C1CNC(=O)[C@@H](Cc2ccc(NC(=O)[C@H](Cc3ccco3)NC(=O)Cc3ccccc3)cc2)NC(=O)CC2(CCCC2)CC(=O)NCCCCCN1 [Compound 230] | > 7.00 | > 7.00 | –
CC(C)(C)[C@H](NC(=O)Cc1ccccc1)C(=O)Nc1ccc(C[C@H]2NC(=O)CC3(CCCC3)CC(=O)NCCCCCNC(=O)CNC2=O)cc1 [Compound 231] | – | 6.00 to 7.00 | 6.00 to 7.00
